In ChEMBL document CHEMBL4813953, “Kinetics-Driven Drug Design Strategy for Next-Generation Acetylcholinesterase Inhibitors to Clinical Candidate” (J Med Chem, 2021):
Active and inactive are the calls of the source. No cut-off for these calls is given here.

Columns and labels:
Acetylcholinesterase [1] = target: T1, Acetylcholinesterase (Rattus norvegicus, UniProt P37136); test: Inhibition of rat cortex homogenate acetylcholinesterase using acetylthiocholine iodide as substrate incubated for 20 mins by Ellman's method; type: tissue-based
T1 sequence (P37136 whole entry): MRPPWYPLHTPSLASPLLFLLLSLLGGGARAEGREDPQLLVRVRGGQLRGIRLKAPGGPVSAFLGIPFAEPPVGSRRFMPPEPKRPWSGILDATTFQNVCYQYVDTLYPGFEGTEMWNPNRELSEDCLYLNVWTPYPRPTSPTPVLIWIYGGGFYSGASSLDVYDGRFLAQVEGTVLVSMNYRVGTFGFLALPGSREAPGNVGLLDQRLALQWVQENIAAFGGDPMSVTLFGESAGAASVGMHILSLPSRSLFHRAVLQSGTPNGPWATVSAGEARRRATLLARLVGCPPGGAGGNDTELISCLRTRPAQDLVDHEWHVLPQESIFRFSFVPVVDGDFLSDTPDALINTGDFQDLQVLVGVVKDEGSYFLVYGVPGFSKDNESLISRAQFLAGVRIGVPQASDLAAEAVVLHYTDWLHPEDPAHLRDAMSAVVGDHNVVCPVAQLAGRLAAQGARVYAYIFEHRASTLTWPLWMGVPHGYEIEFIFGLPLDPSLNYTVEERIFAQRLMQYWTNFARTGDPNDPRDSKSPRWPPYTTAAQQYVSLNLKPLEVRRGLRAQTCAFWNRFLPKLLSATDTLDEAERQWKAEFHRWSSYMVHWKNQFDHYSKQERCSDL

[2] = target: T2, Acetylcholinesterase (Rattus norvegicus) (UniProt P37136); test: Inhibition of rat cortex homogenate acetylcholinesterase at 40 uM using acetylthiocholine iodide as substrate incubated for 20 mins by Ellman's method relative to control; type: tissue-based
T2 sequence (whole entry): T1 sequence (P37136 whole entry)

Acetylcholinesterase [3] = target: Acetylcholinesterase (Homo sapiens, UniProt P22303); test: Binding affinity to CM5 sensor chip immobilized recombinant human AChE assessed as dissociation constant at 298.15 K by surface plasmon resonance assay
[4] = Solubility of the compound; type: physicochemical
Mus musculus [5] = test: Cognitive enhancing effect in mouse model of scopolamine-induced memory impairment assessed as reduction in escape latency time at 8 to 12 mg/kg, IG QD for 3 days by channel water maze test; type: functional, organism-based; conditions: dose 8-12 mg/kg, time 3.0 day
Mus musculus [6] = test: Cognitive enhancing effect in mouse model of scopolamine-induced memory impairment assessed as reduction in number of errors at 8 to 12 mg/kg, IG QD for 3 days by channel water maze test; type: functional, organism-based; conditions: dose 8-12 mg/kg, time 3.0 day

Chain of Acetylcholinesterase (Homo sapiens, UniProt P22303) (P22303 whole entry): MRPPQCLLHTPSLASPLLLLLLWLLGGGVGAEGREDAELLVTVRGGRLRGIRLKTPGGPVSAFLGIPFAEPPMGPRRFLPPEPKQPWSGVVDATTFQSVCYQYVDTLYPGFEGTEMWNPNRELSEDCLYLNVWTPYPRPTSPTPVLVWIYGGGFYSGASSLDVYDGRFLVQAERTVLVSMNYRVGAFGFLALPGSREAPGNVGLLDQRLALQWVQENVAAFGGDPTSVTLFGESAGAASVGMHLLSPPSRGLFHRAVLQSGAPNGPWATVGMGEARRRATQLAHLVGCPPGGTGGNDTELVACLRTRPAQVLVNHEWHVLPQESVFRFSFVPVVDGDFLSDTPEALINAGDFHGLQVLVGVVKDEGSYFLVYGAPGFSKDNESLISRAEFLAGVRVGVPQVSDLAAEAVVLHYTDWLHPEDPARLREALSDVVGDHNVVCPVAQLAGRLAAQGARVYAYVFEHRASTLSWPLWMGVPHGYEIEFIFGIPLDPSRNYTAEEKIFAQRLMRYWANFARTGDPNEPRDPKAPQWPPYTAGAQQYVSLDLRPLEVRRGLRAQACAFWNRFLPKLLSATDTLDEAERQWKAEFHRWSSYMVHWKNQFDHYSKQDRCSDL

| SMILES | IC50 (Acetylcholinesterase [1]) | other results |
| --- | --- | --- |
| CCCOc1cc2c(cc1OC)CC(CC1(F)CCN(Cc3ccc(F)cc3)CC1)C2=O (stereo not given) | 18.3 nM |  |
| COc1cc2c(cc1OCC1CC1)C(=O)C(CC1(F)CCN(Cc3ccccc3F)CC1)C2 (stereo not given) |  | inhibition [2]: 8.4% |
| CCCOc1cc2c(cc1OCCC)C(=O)C(CC1(F)CCN(Cc3ccccc3F)CC1)C2 (stereo not given) | 66.7 nM |  |
| COc1cc2c(cc1OC)C(=O)C(CC1(F)CCN(Cc3cc(F)cc(F)c3)CC1)C2 (stereo not given) | 226 nM |  |
| COc1cc2c(cc1OC)C(=O)C(CC1(F)CCN(Cc3cccc(C)c3)CC1)C2 (stereo not given) | 11.7 nM |  |
| COc1cc2c(cc1OC)C(=O)C(CC1(F)CCN(CCc3ccccc3F)CC1)C2 (stereo not given) |  | inhibition [2]: 74.7% |
| COc1cc2c(cc1OCC1CC1)C(=O)C(CC1(F)CCN(Cc3ccc(F)cc3)CC1)C2 (stereo not given) | 5.39 nM |  |
| C/C=C1\[C@H]2C=C(C)C[C@]1(N)c1ccc(=O)[nH]c1C2 [HUPERZINE A] |  | Kd (Acetylcholinesterase [3]): 17 nM |
| COc1cc2c(cc1F)C(=O)C(CC1(F)CCN(Cc3ccccc3F)CC1)C2 (stereo not given) | 3.52 nM |  |
| COc1cc2c(cc1OCC1CC1)C(=O)C(CC1(F)CCN(Cc3ccc(F)cc3F)CC1)C2 (stereo not given) | 4.59 nM |  |
| COc1ccc2c(c1)C(=O)C(CC1(F)CCN(Cc3ccccc3F)CC1)C2 (stereo not given) | 60.5 nM |  |
| COc1cc2c(cc1OC)C(=O)C(CC1(F)CCN(Cc3ccc(C(F)(F)F)cc3)CC1)C2 (stereo not given) |  | inhibition [2]: 75.3% |
| CCCOc1cc2c(cc1OCCC)C(=O)C(CC1(F)CCN(Cc3cccc(F)c3)CC1)C2 (stereo not given) | 176 nM |  |
| COc1cc2c(cc1F)CC(CC1(F)CCN(Cc3ccccc3F)CC1)C2=O (stereo not given) | 22.5 nM |  |
| COc1cc2c(cc1OC)C(=O)C(CC1(F)CCN(Cc3cccc(C#N)c3)CC1)C2 (stereo not given) | 67.3 nM |  |
| COc1cc2c(cc1OC)C(=O)C(CC1(F)CCN(Cc3ccccc3)CC1)C2 (stereo not given) |  | Kd (Acetylcholinesterase [3]): 4.61 nM |
| COc1cc2c(cc1OC)C(=O)C(CC1(F)CCN(Cc3c(F)c(F)c(F)c(F)c3F)CC1)C2 (stereo not given) |  | solubility [4]: Insoluble |
| COc1cc2c(cc1OC)C(=O)C(CC1(F)CCN(Cc3cccc(C(F)(F)F)c3)CC1)C2 (stereo not given) | 348 nM |  |
| COc1cc2c(cc1OC)C(=O)C(CC1CCN(Cc3ccccc3)CC1)C2 (stereo not given) |  | Activity (Mus musculus [5]): Active; Activity (Mus musculus [6]): Active |
| COc1cc2c(cc1OC)C(=O)C(CC1(F)CCN(CCc3cccc(F)c3)CC1)C2 (stereo not given) | 59 nM |  |
| COc1cc2c(cc1OC)C(=O)C(CC1(F)CCN(Cc3ccc(F)c(F)c3F)CC1)C2 (stereo not given) | 75.7 nM |  |

| SMILES | IC50 (Acetylcholinesterase [1]) | other results |
| --- | --- | --- |
| COc1cc2c(cc1OCC1CC1)C(=O)C(CC1(F)CCN(Cc3cccc(F)c3)CC1)C2 (stereo not given) | 5.87 nM |  |
| COc1cc2c(cc1OC)C(=O)C(CC1(F)CCN(Cc3ccc(OC(F)(F)F)cc3)CC1)C2 (stereo not given) |  | inhibition [2]: 51.7% |
| COc1cc2c(cc1OC)C(=O)C(CC1(F)CCN(Cc3cc(F)c(F)cc3F)CC1)C2 (stereo not given) |  | Kd (Acetylcholinesterase [3]): 5.23 nM |
| COc1cc2c(cc1F)C(=O)C(CC1(F)CCN(Cc3ccc(F)cc3)CC1)C2 (stereo not given) | 3.44 nM |  |
| CCCCOc1cc2c(cc1OCCCC)C(=O)C(CC1(F)CCN(Cc3ccccc3F)CC1)C2 (stereo not given) | 181 nM |  |
| COc1cc2c(cc1F)CC(CC1(F)CCN(Cc3cccc(F)c3)CC1)C2=O (stereo not given) | 44.9 nM |  |
| CCCCOc1cc2c(cc1OCCCC)C(=O)C(CC1(F)CCN(Cc3cccc(F)c3)CC1)C2 (stereo not given) | 646 nM |  |
| COc1cc2c(cc1OC)C(=O)C(CC1(F)CCN(CCc3ccc(F)cc3)CC1)C2 (stereo not given) | 404 nM |  |
| COc1cc2c(cc1OC)C(=O)C(CC1(F)CCN(Cc3ccccc3C#N)CC1)C2 (stereo not given) | 163 nM |  |
| COc1ccc2c(c1)C(=O)C(CC1(F)CCN(Cc3ccc(F)cc3)CC1)C2 (stereo not given) | 260 nM |  |
| COc1cc2c(cc1OC)C(=O)C(CC1(F)CCN(Cc3cccc(F)c3)CC1)C2 (stereo not given) | 3 nM | Kd (Acetylcholinesterase [3]): 5.02 nM |
| COc1cc2c(cc1OC)C(=O)C(CC1(F)CCN(Cc3ccc(F)cc3F)CC1)C2 (stereo not given) | 8.33 nM | Kd (Acetylcholinesterase [3]): 3.47 nM |
| COc1cc2c(cc1OC)C(=O)C(CC1(F)CCN(Cc3ccc(C(C)(C)C)cc3)CC1)C2 (stereo not given) |  | inhibition [2]: 69.1% |
| COc1ccc2c(c1)CC(CC1(F)CCN(Cc3ccccc3F)CC1)C2=O (stereo not given) | 6.29 nM |  |
| COc1cc2c(cc1OC)C(=O)C(CC1(F)CCN(Cc3ccccc3C(F)(F)F)CC1)C2 (stereo not given) | 1640 nM |  |
| COc1cc2c(cc1OC)C(=O)C(CC1(F)CCN(Cc3cc(F)cc(F)c3F)CC1)C2 (stereo not given) | 306 nM |  |
| COc1cc2c(cc1F)CC(CC1(F)CCN(Cc3ccc(F)cc3)CC1)C2=O (stereo not given) | 28.3 nM |  |
| CCCOc1cc2c(cc1OC)CC(CC1(F)CCN(Cc3ccccc3F)CC1)C2=O (stereo not given) | 25.3 nM |  |
| COc1cc2c(cc1F)C(=O)C(CC1(F)CCN(Cc3cccc(F)c3)CC1)C2 (stereo not given) | 3.71 nM |  |
| COc1cc2c(cc1OC)C(=O)C(CC1(F)CCN(Cc3ccc(F)cc3)CC1)C2 (stereo not given) |  | Kd (Acetylcholinesterase [3]): 2.78 nM |
| COc1ccc2c(c1)CC(CC1(F)CCN(Cc3cccc(F)c3)CC1)C2=O (stereo not given) | 14.1 nM |  |
